Laboratory results as given in PubChem BioAssay AID1745844 (Carcinogenic Potency Database (CPDB), 2022).
Where “and” joins values, the source holds several entries; their conditions need not be identical. Identical values can stand only once. Calls of active or inactive are those of the source. How the calls were made is not given here.

Tested on: rodent lifetime carcinogenesis bioassay, tumor incidence TD50
Assay: carcinogenic potency in animals, long-term in vivo studies, CPDB compilation (AID 1745844)

CC(=O)OC[C@H]1O[C@@](COC(=O)C(C)C)(O[C@H]2O[C@H](COC(C)=O)[C@@H](OC(=O)C(C)C)[C@H](OC(=O)C(C)C)[C@H]2OC(=O)C(C)C)[C@@H](OC(=O)C(C)C)[C@@H]1OC(=O)C(C)C
carcinogen call (mouse, strain B6C3F1, females, in feed, site: any site (literature study), lesion: several types, types named in the paper, dosed 104 weeks, study length 104 weeks): negative (inactive) | carcinogen call (mouse, strain B6C3F1, males, in feed, site: any site (literature study), lesion: several types, types named in the paper, dosed 104 weeks, study length 104 weeks): negative (inactive) | TD50 (rat, strain Fischer 344, females, in feed, site: any site (literature study), lesion: several types, types named in the paper, dosed 52 weeks, study length 52 weeks): 3250 mg/kg/day (inactive) | carcinogen call (rat, strain Fischer 344, females, in feed, site: any site (literature study), lesion: several types, types named in the paper, dosed 104 weeks, study length 104 weeks): negative (inactive) | TD50 (rat, strain Fischer 344, females, in feed, site: liver, lesion: hepatocellular adenoma, dosed 52 weeks, study length 52 weeks): 3250 mg/kg/day (inactive) | carcinogen call (rat, strain Fischer 344, males, in feed, site: any site (literature study), lesion: several types, types named in the paper, dosed 52 weeks, study length 52 weeks): negative (inactive) | carcinogen call (rat, strain Fischer 344, males, in feed, site: any site (literature study), lesion: several types, types named in the paper, dosed 104 weeks, study length 104 weeks): negative (inactive) | carcinogen call (rat, strain Fischer 344, males, in feed, site: liver, lesion: one or several types, types not named, dosed 52 weeks, study length 52 weeks): negative (inactive)

CN(N=O)c1ccccn1
TD50 (rat, strain BD VI, females, by gavage, site: any site (literature study), lesion: benign tumor, dosed 72 weeks, study length 72 weeks): 3.05 mg/kg/day | TD50 (rat, strain BD VI, females, by gavage, site: any site (literature study), lesion: malignant tumor, dosed 72 weeks, study length 72 weeks): 0.668 mg/kg/day | TD50 (rat, strain BD VI, females, by gavage, site: any site (literature study), lesion: several types, types named in the paper, dosed 72 weeks, study length 72 weeks): 0.28 mg/kg/day | TD50 (rat, strain BD VI, females, by gavage, site: esophagus, lesion: several types, types named in the paper, dosed 72 weeks, study length 72 weeks): 0.214 mg/kg/day

CCN(Cc1cccc(S(=O)(=O)[O-])c1)c1ccc(C(=C2C=CC(=[N+](C)C)C=C2)c2ccc(N(CC)Cc3cccc(S(=O)(=O)O)c3)cc2)cc1
carcinogen call (mouse, strain ASH-CS1, females, in feed, site: liver, lesion: one or several types, types not named, dosed 80 weeks, study length 80 weeks): negative (inactive) | TD50 (mouse, strain ASH-CS1, females, in feed, site: lung, lesion: adenoma, dosed 80 weeks, study length 80 weeks): 1910 mg/kg/day (inactive) | carcinogen call (mouse, strain ASH-CS1, males, in feed, site: liver, lesion: one or several types, types not named, dosed 80 weeks, study length 80 weeks): negative (inactive) | TD50 (mouse, strain ASH-CS1, males, in feed, site: lung, lesion: adenocarcinoma, dosed 80 weeks, study length 80 weeks): 4660 mg/kg/day (inactive) | carcinogen call (mouse, strain ASH-CS1, males, in feed, site: lung, lesion: adenoma, dosed 80 weeks, study length 80 weeks): negative (inactive) | TD50 (rat, strain Sprague-Dawley albino, females, in feed, site: any site (literature study), lesion: malignant tumor, dosed 52 weeks, study length 52 weeks): 568 mg/kg/day | TD50 (rat, strain Sprague-Dawley albino, females, in feed, site: any site (literature study), lesion: several types, types named in the paper, dosed 52 weeks, study length 52 weeks): 660 mg/kg/day | TD50 (rat, strain Sprague-Dawley albino, females, in feed, site: ear duct, lesion: carcinoma, dosed 52 weeks, study length 52 weeks): 1600 mg/kg/day | TD50 (rat, strain Sprague-Dawley albino, females, in feed, site: mammary gland, lesion: carcinoma, dosed 52 weeks, study length 52 weeks): 1140 mg/kg/day | TD50 (rat, strain Sprague-Dawley, females, in feed, site: any site (literature study), lesion: several types, types named in the paper, dosed 51 weeks, study length 52 weeks): 418 mg/kg/day | TD50 (rat, strain Sprague-Dawley, females, in feed, site: mammary gland, lesion: carcinoma, dosed 51 weeks, study length 52 weeks): 573 mg/kg/day | TD50 (rat, strain Sprague-Dawley, females, in feed, site: skin, lesion: squamous-cell carcinoma, dosed 51 weeks, study length 52 weeks): 1100 mg/kg/day

C=C1C[C@]23C[C@@]1(O)CC[C@H]2[C@@]12C=C[C@H](O)[C@@](C)(C(=O)O1)[C@H]2[C@@H]3C(=O)O
carcinogen call (mouse, strain B6AKF1, females, oral dosing, site: any site (literature study), lesion: several types, types named in the paper, dosed 76 weeks, study length 76 weeks): negative (inactive) | carcinogen call (mouse, strain B6AKF1, females, oral dosing, site: liver, lesion: hepatoma, dosed 76 weeks, study length 76 weeks): negative (inactive) | carcinogen call (mouse, strain B6AKF1, females, oral dosing, site: lung, lesion: adenoma, dosed 76 weeks, study length 76 weeks): negative (inactive) | TD50 (mouse, strain B6AKF1, males, oral dosing, site: any site (literature study), lesion: several types, types named in the paper, dosed 76 weeks, study length 76 weeks): 151 mg/kg/day (inactive) | TD50 (mouse, strain B6AKF1, males, oral dosing, site: liver, lesion: hepatoma, dosed 76 weeks, study length 76 weeks): 316 mg/kg/day (inactive) | TD50 (mouse, strain B6AKF1, males, oral dosing, site: lung, lesion: several types, types named in the paper, dosed 76 weeks, study length 76 weeks): 460 mg/kg/day (inactive) | TD50 (mouse, strain B6C3F1, females, oral dosing, site: any site (literature study), lesion: several types, types named in the paper, dosed 76 weeks, study length 76 weeks): 1150 mg/kg/day (inactive) | carcinogen call (mouse, strain B6C3F1, females, oral dosing, site: liver, lesion: hepatoma, dosed 76 weeks, study length 76 weeks): negative (inactive) | carcinogen call (mouse, strain B6C3F1, females, oral dosing, site: lung, lesion: several types, types named in the paper, dosed 76 weeks, study length 76 weeks): negative (inactive) | TD50 (mouse, strain B6C3F1, males, oral dosing, site: any site (literature study), lesion: several types, types named in the paper, dosed 76 weeks, study length 76 weeks): 214 mg/kg/day (inactive) | TD50 (mouse, strain B6C3F1, males, oral dosing, site: liver, lesion: hepatoma, dosed 76 weeks, study length 76 weeks): 460 mg/kg/day (inactive) | TD50 (mouse, strain B6C3F1, males, oral dosing, site: lung, lesion: adenoma, dosed 76 weeks, study length 76 weeks): 952 mg/kg/day (inactive)

Nc1ccc(Oc2ccc(Cl)cc2)cc1
TD50 (mouse, strain CD-1 HaM/ICR, females, in feed, site: all sites, lesion: all vascular tumors, dosed 68 weeks, study length 86 weeks): 346 mg/kg/day | TD50 (mouse, strain CD-1 HaM/ICR, females, in feed, site: any site (literature study), lesion: several types, types named in the paper, dosed 68 weeks, study length 86 weeks): 598 mg/kg/day | TD50 (mouse, strain CD-1 HaM/ICR, females, in feed, site: liver, lesion: several types, types named in the paper, dosed 68 weeks, study length 86 weeks): 905 mg/kg/day | TD50 (mouse, strain CD-1 HaM/ICR, females, in feed, site: urinary bladder, lesion: several types, types named in the paper, dosed 68 weeks, study length 86 weeks): 1130 mg/kg/day | carcinogen call (mouse, strain CD-1 HaM/ICR, males, in feed, site: any site (literature study), lesion: several types, types named in the paper, dosed 51 weeks, study length 55 weeks): negative (inactive) | carcinogen call (mouse, strain CD-1 HaM/ICR, males, in feed, site: liver, lesion: several types, types named in the paper, dosed 51 weeks, study length 55 weeks): negative (inactive) | carcinogen call (mouse, strain CD-1 HaM/ICR, males, in feed, site: lung, lesion: several types, types named in the paper, dosed 51 weeks, study length 55 weeks): negative (inactive) | TD50 (rat, strain Charles River CD (Sprague-Dawley), males, in feed, site: any site (literature study), lesion: several types, types named in the paper, dosed 77 weeks, study length 98 weeks): 25.1 mg/kg/day | TD50 (rat, strain Charles River CD (Sprague-Dawley), males, in feed, site: liver, lesion: hepatoma, dosed 77 weeks, study length 98 weeks): 37.9 mg/kg/day and 37.6 mg/kg/day | TD50 (rat, strain Charles River CD (Sprague-Dawley), males, in feed, site: liver, lesion: several types, types named in the paper, dosed 77 weeks, study length 98 weeks): 37.9 mg/kg/day
